Consider 3 molecules from article PMC6222422, “Synthesis and Biological Evaluation of Novel Indole-Derived Thioureas” (Molecules : A Journal of Synthetic Chemistry and Natural …, 2018).

Values after ≈ are worked out from the molar mass of the structure shown. Where only a bound is given, the exact number is not on record here.

The test system of one data set is RSV. Put plainly: microbe, parasite or virus in culture. The data set is classed as cell-based, human respiratory syncytial virus. The conditions noted are these: for EC50: human respiratory syncytial virus, Vero 76, read-out: RSV EC50.
The nature of data set [1]: Cytotoxicity, MTT method. The note with it: African green monkey (Cercopithecus aethiops). In general terms: Tetrazolium assays rely on reduction of a dye to a coloured formazan, in cell work by metabolically active cells.
In another data set the test system is BVDV. Put plainly: microbe, parasite or virus in culture. The data set is classed as cell-based, bovine viral diarrhoea virus. The note with it: Bovine viral diarrhea virus isolates and strains, MDBK, in Bos taurus, read-out: BVDV EC50.
Another data set relates to Reo-1. Put plainly: microbe, parasite or virus in culture. Format: cell-based, reovirus type-1. The conditions noted are these: Reovirus sp., BHK, read-out: Reo-1 EC50.
A further data set concerns CV-B5. The data set can be described thus: microbe, parasite or virus in culture. The note with it: Enterovirus B, CVB5, Vero 76, read-out: CV-B5 EC50. Format: cell-based, coxsackievirus B5.
The next data set has as its system VV. Put plainly: microbe, parasite or virus in culture. The data set is classed as cell-based. The note with it: Orthopoxvirus vaccinia, Vero 76, read-out: VV EC50.
The next data set deals with YFV. Put plainly: microbe, parasite or virus in culture. The data set is classed as cell-based. The note with it: Yellow fever virus, BHK, read-out: YFV EC50.
Another data set concerns HIV-1. The data set can be described thus: microbe, parasite or virus in culture. The conditions noted are these: Human immunodeficiency virus 1, MT4, read-out: HIV-1 EC50.
Data set [2] is described as follows: Cytotoxicity, MTT method. The note with it: cattle (Bos taurus).
Data set [3] is described as follows: Cytotoxicity, MTT method. The conditions noted are these: Syrian hamster (Mesocricetus auratus).
Data set [4] in a line: Cytotoxicity, MTT method. The conditions noted are these: human.
For a further data set, the system named is HSV-1. Put plainly: microbe, parasite or virus in culture. The conditions noted are these: Human alphaherpesvirus 1, Vero 76, read-out: HSV-1 EC50. Format: cell-based, human herpes 1.
A further data set has as its system Sb-1. The data set can be described thus: microbe, parasite or virus in culture. Format: cell-based, poliovirus type-1. The conditions noted are these: Enterovirus C, Vero 76, read-out: Sb-1 EC50.
Another data set deals with VSV. Put plainly: microbe, parasite or virus in culture. Format: cell-based. The note with it: Vesicular stomatitis virus, Vero 76, read-out: VSV EC50.
Data set [5] has as its system B. subtilis ATCC 6633. Put plainly: MIC, twofold serial agar dilution. The data set is classed as cell-based. The note with it: Bacillus subtilis, ATCC6633, 18 h, 35 °C, read-out: minimal inhibitory concentrations (MIC). A general note: In agar dilution, organisms are placed on agar that contains the substance at set levels.
In data set [6] the test system is S. aureus ATCC 25923. The data set can be described thus: MIC, twofold serial agar dilution. Format: cell-based. The conditions noted are these: Staphylococcus aureus, ATCC25923, 18 h, 35 °C, read-out: minimal inhibitory concentrations (MIC).
Data set [7] can be described thus: in vitro. The conditions noted are these: Syrian hamster (Mesocricetus auratus).
Data set [8] is described as follows: in vitro. The note with it: cattle (Bos taurus).
The subject of data set [9] is S. aureus ATCC 6538. Put plainly: MIC, twofold serial agar dilution. Format: cell-based. The note with it: Staphylococcus aureus, ATCC6538, 18 h, 35 °C, read-out: minimal inhibitory concentrations (MIC).
Data set [10] relates to M. luteus ATCC 10240. Put plainly: MIC, twofold serial agar dilution. The note with it: Micrococcus luteus, ATCC10240, 18 h, 35 °C, read-out: minimal inhibitory concentrations (MIC). Format: cell-based.
Data set [11] deals with M. luteus ATCC 9341. Put plainly: MIC, twofold serial agar dilution. The note with it: Micrococcus luteus, ATCC9341, 18 h, 35 °C, read-out: minimal inhibitory concentrations (MIC). The data set is classed as cell-based.
The subject of data set [12] is B. cereus ATCC 11778. The data set can be described thus: disc diffusion method. The data set is classed as cell-based, Bacillus cereus. The conditions noted are these: Bacillus cereus, ATCC11778, applied 400 µg per disc, dash = lack of the growth inhibition area, read-out: diameter of growth inhibitory zone (GIZ). For orientation: In agar diffusion tests the substance spreads into inoculated agar from a disc or well.

Data set [13] relates to S. aureus ATCC 6538. The data set can be described thus: disc diffusion method. Format: cell-based, Staphylococcus aureus. The conditions noted are these: Staphylococcus aureus, ATCC6538, applied 400 µg per disc, dash = lack of the growth inhibition area, read-out: diameter of growth inhibitory zone (GIZ).
For another data set, the system named is S. epidermidis (MRSE). Put plainly: MIC against hospital strains. The conditions noted are these: Staphylococcus epidermidis.
Data set [14] deals with M. luteus ATCC 9341. The data set can be described thus: disc diffusion method. The data set is classed as cell-based, Micrococcus luteus. The note with it: Micrococcus luteus, ATCC9341, applied 400 µg per disc, dash = lack of the growth inhibition area, read-out: diameter of growth inhibitory zone (GIZ).
Data set [15] concerns S. aureus NCTC 4163. Put plainly: MIC, twofold serial agar dilution. Format: cell-based. The conditions noted are these: Staphylococcus aureus, NCTC4163, 18 h, 35 °C, read-out: minimal inhibitory concentrations (MIC).
Data set [16] is described as follows: in vitro. The note with it: human.
Data set [17] has as its system B. cereus ATCC 11778. Put plainly: MIC, twofold serial agar dilution. The data set is classed as cell-based. The note with it: Bacillus cereus, ATCC11778, 18 h, 35 °C, read-out: minimal inhibitory concentrations (MIC).
The subject of data set [18] is M. luteus ATCC 10240. The data set can be described thus: disc diffusion method. The data set is classed as cell-based, Micrococcus luteus. The conditions noted are these: Micrococcus luteus, ATCC10240, applied 400 µg per disc, dash = lack of the growth inhibition area, read-out: diameter of growth inhibitory zone (GIZ).
The test system of data set [19] is B. subtilis ATCC 6633. Put plainly: disc diffusion method. The note with it: Bacillus subtilis, ATCC6633, applied 400 µg per disc, dash = lack of the growth inhibition area, read-out: diameter of growth inhibitory zone (GIZ). The data set is classed as cell-based, Bacillus subtilis.
Data set [20] deals with S. aureus NCTC 4163. Put plainly: disc diffusion method. The data set is classed as cell-based, Staphylococcus aureus. The conditions noted are these: Staphylococcus aureus, NCTC4163, applied 400 µg per disc, dash = lack of the growth inhibition area, read-out: diameter of growth inhibitory zone (GIZ).
For data set [21], the system named is S. aureus ATCC 25923. The data set can be described thus: disc diffusion method. Format: cell-based, Staphylococcus aureus. The conditions noted are these: Staphylococcus aureus, ATCC25923, applied 400 µg per disc, dash = lack of the growth inhibition area, read-out: diameter of growth inhibitory zone (GIZ).
Data set [22] is described as follows: in vitro. The note with it: African green monkey (Cercopithecus aethiops).

A word on the EC50: it is the concentration at which the effect is half-maximal. As to `O=c1cnn([C@@H]2O[C@H](CO)[C@@H](O)[C@H]2O)c(=O)[nH]1` [6-Aza-uridine, 6-azauridine, reference compound], the 50% effective concentration (EC50) in the data set on RSV was found to be 1.4 ± 0.06 µM. Further, in “Cytotoxicity, MTT method [1]”, the CC50 was 12 µM.

Regarding `Cc1ccc(NC(=S)NCCc2c[nH]c3ccccc23)cc1` [Compound 3, 1-(2-(1H-Indol-3-yl)ethyl)-3-(4-methylphenyl)thiourea], the EC50 was ≥ 100 µM in the data set on BVDV; > 16 µM in the data set with Reo-1; > 75 µM with CV-B5; > 75 µM in the data set on VV; > 16 µM in the data set on YFV; 20 ± 3 µM with RSV. Also, the EC50 is > 33 µM in the data set with HIV-1, > 75 µM in the data set with HSV-1, > 75 µM in the data set with Sb-1 and > 75 µM in the data set with VSV. Further, the “activity against RSV (in words)” value with RSV is “moderately active”. For the same molecule, the CC50 is 75 µM in the data set “Cytotoxicity, MTT method [1]”; > 100 µM in “Cytotoxicity, MTT method [2]”; 16 µM in the data set “Cytotoxicity, MTT method [3]”; 33 µM in the data set “Cytotoxicity, MTT method [4]”.

A word on the melting point: it is the temperature, or range, at which the solid turns liquid. The molecule `C=C(C)CNC(=S)NCCc1c[nH]c2ccccc12` [Compound 19, 1-(2-(1H-Indol-3-yl)ethyl)-3-(2-methylallyl)thiourea] had a melting point of 141 to 143 °C. Besides, the MIC in the data set on B. subtilis ATCC 6633 [5] was 400 µg/mL (≈ 1460 µM). Besides, in the data set with S. aureus ATCC 25923 [6], the MIC was found to be 400 µg/mL (≈ 1460 µM). For the same molecule, in “in vitro [7]”, the CC50 is 35 µM. In the data set with BVDV, the EC50 was ≥ 100 µM. For the same molecule, the CC50 in the data set “in vitro [8]” is > 100 µM. Moreover, the MIC in the data set with S. aureus ATCC 6538 [9] amounted to 200 µg/mL (≈ 732 µM). Moreover, the EC50 in the data set on Reo-1 is > 35 µM. In addition, the MIC in the data set with M. luteus ATCC 10240 [10] amounted to 50 µg/mL (≈ 183 µM). Besides, the MIC in the data set with M. luteus ATCC 9341 [11] was 200 µg/mL (≈ 732 µM). Moreover, in the data set on CV-B5, the EC50 was > 89 µM. The zone of inhibition at 400 µg/disc in the data set with B. cereus ATCC 11778 [12] came to 13 mm. In the data set with S. aureus ATCC 6538 [13], the zone of inhibition at 400 µg/disc amounted to 11 mm. In the data set with S. epidermidis (MRSE) (hospital S. epidermidis MRSE strain 430/11), this molecule showed an MIC of 12.5 µg/mL (≈ 45.7 µM). The molecule also showed an MIC in the data set on S. epidermidis (MRSE) (hospital S. epidermidis MRSE strain 431/11) of 100 µg/mL (≈ 366 µM). The molecule also showed an MIC with S. epidermidis (MRSE) (hospital S. epidermidis MRSE strain 432/11) of 12.5 µg/mL (≈ 45.7 µM). The molecule also returned an MIC with S. epidermidis (MRSE) (hospital S. epidermidis MRSE strain 433/11) of 50 µg/mL (≈ 183 µM). The molecule also came in with an MIC in the data set with S. epidermidis (MRSE) (hospital S. epidermidis MRSE strain 434/11) of 12.5 µg/mL (≈ 45.7 µM). In the data set on S. epidermidis (MRSE) (hospital S. epidermidis MRSE strain 435/11), the MIC is 50 µg/mL (≈ 183 µM). The MIC with S. epidermidis (MRSE) (hospital S. epidermidis MRSE strain 436/11) was determined as 100 µg/mL (≈ 366 µM). Besides, in the data set with S. epidermidis (MRSE) (hospital S. epidermidis MRSE strain 437/11), the MIC worked out at 200 µg/mL (≈ 732 µM). For the same molecule, the MIC in the data set on S. epidermidis (MRSE) (hospital S. epidermidis MRSE strain 438/11) was determined as 100 µg/mL (≈ 366 µM). Moreover, the MIC against S. epidermidis (MRSE) (hospital S. epidermidis MRSE strain 439/11) came to 50 µg/mL (≈ 183 µM). Also, the EC50 in the data set on VV is > 89 µM. For the same molecule, the zone of inhibition at 400 µg/disc with M. luteus ATCC 9341 [14] worked out at 13 mm. For the same molecule, the 50% effective concentration (EC50) in the data set on YFV is > 35 µM. The MIC in the data set on S. aureus NCTC 4163 [15] was found to be 400 µg/mL (≈ 1460 µM). Also, in the data set on RSV, the EC50 was > 89 µM. In addition, in the data set “in vitro [16]”, the CC50 is > 100 µM. In the data set with HIV-1, the EC50 was > 100 µM. In addition, the MIC with B. cereus ATCC 11778 [17] was determined as 200 µg/mL (≈ 732 µM). Besides, in the data set with M. luteus ATCC 10240 [18], the zone of inhibition at 400 µg/disc turned out to be 14 mm. Also, the zone of inhibition at 400 µg/disc with B. subtilis ATCC 6633 [19] is 13 mm. Moreover, the zone of inhibition at 400 µg/disc in the data set with S. aureus NCTC 4163 [20] was 12 mm. In addition, the EC50 in the data set with HSV-1 was > 89 µM. Also, in the data set with Sb-1, the EC50 was > 89 µM. In addition, the zone of inhibition at 400 µg/disc in the data set on S. aureus ATCC 25923 [21] turned out to be 12 mm. Moreover, the CC50 in “in vitro [22]” came out at 89 µM. Also, the EC50 with VSV was > 89 µM.
